Publication PMC10042540, “Targeting oncogenic KRasG13C with nucleotide-based covalent inhibitors” (eLife, 2023)

How the values were obtained:
[1] = test system: SOS; test: Guanine nucleotide-exchange factor assay (mantdGDP fluorescence); format: biochemical; details: 5 µM KRas1-169, 10 µM mantdGDP, 0.25 or 0.5 µM SOS
Procedure: SOS-catalysed nucleotide exchange was monitored at 25 °C in a FluoroMax-3 spectrofluorometer (excitation at 360 nm, emission at 440 nm) in 20 mM HEPES (pH 7.5), 100 mM NaCl, 2 mM MgCl2, and 1 mM TCEP. 5 µM KRas1-169 was mixed with 10 µM mantdGDP and subsequently with different concentrations of SOS (0.25 µM and 0.5 µM) (Figure 3A; Figure 3—figure supplement 1).

[2] = test system: Ras pathway (pcRaf, pAkt, pErk, pS6); test: Electroporation into HeLa cells, western blot of downstream signalling; format: cell-based, human; details: electroporation of 50-300 µg protein
Procedure: (§1) HeLa cells were obtained from the American Type Culture Collection (ATCC) and were cultured in DMEM medium (Gibco) supplemented with 10% fetal bovine serum (FBS) (PAN-Biotech) and 1% penicillin/streptomycin (Gibco). Cells were cultured in a humidified incubator at 37 °C in the presence of 5% CO2. The identity of the cells was validated by STR profiling and the cells were tested negative for mycoplasma contamination.
(§2) Electroporation of full-length KRas constructs (KRasWT, KRasG13C, KRasG13C-edaGDP, KRasG13C:acetyledaGDP and KRasG13C-edaGppCp) was performed based on the protocol described by [Alex et al., 2019] using the Neon Transfection System Kit (Thermo Fisher). For electroporation, 3 million cells per experiment were harvested by trypsinization, washed with PBS, and resuspended in 85 µL of the electroporation buffer R (Thermo Fisher). Increasing amounts of recombinant protein samples for each construct (0, 50, 100, 200 and 300 µg) were diluted 1:1 in buffer R followed by the addition of 30 µL of this protein master mix to the cell suspension. This cellular slurry was loaded into a […] Neon Pipette Tip (Thermo Fisher) and electroporated with 2x35 ms pulses at 1000 V. After electroporation, the cells were washed twice with PBS (15 mL) to remove non-internalized extracellular protein and the cell pellet was resuspended in 2 mL complete growth media. Cells were transferred into six-well tissue culture plates (Sarstedt) and incubated for 24 hr at 37 °C and 5% CO2 in a humidified incubator for recovery before being processed for western blotting analysis.
After recovery of the electroporation, cells were washed twice with ice-cold PBS and lysed in 100 µL of phosphatase and protease inhibitor containing RIPA buffer (Cell Signaling Technology). Cells were incubated on ice for 30 min and then harvested by scraping followed by centrifugation at 14,000 rpm for 10 min at 4 °C. Protein concentrations were determined using the Pierce BCA protein assay (Thermo) following the manufacturer’s recommended procedure. Equal amounts of protein (10 µg) were analyzed by SDS-PAGE and transferred to Immobilon-FL PVDF membranes (Merck Millipore) using Pierce 1-step transfer buffer (Thermo) and the Pierce Power Blotter (Thermo). Membranes were washed with ddH2O for 5 min, blocked with OdysseyBlocking Buffer TBS (Li-Cor) for 1 hr at room temperature and then incubated with primary antibodies diluted in OdysseyBlocking Buffer TBS overnight at 4 °C with gentle agitation. […] Quantification of protein levels from western blots was performed using Empiria Studio (Li-Cor) (Figure 3B, C, Figure 3—figure supplements 6–9).

[3] = test system: pAktS473; test: Electroporation into HeLa cells, western blot quantification; format: cell-based, human; details: for pAkt mean fold change: mean of cell lysates
Procedure: as §1, §2
(§3) After recovery of the electroporation, cells were washed twice with ice-cold PBS and lysed in 100 µL of phosphatase and protease inhibitor containing RIPA buffer (Cell Signaling Technology). Cells were incubated on ice for 30 min and then harvested by scraping followed by centrifugation at 14,000 rpm for 10 min at 4 °C. Protein concentrations were determined using the Pierce BCA protein assay (Thermo) following the manufacturer’s recommended procedure. Equal amounts of protein (10 µg) were analyzed by SDS-PAGE and transferred to Immobilon-FL PVDF membranes (Merck Millipore) using Pierce 1-step transfer buffer (Thermo) and the Pierce Power Blotter (Thermo). Membranes were washed with ddH2O for 5 min, blocked with OdysseyBlocking Buffer TBS (Li-Cor) for 1 hr at room temperature and then incubated with primary antibodies diluted in OdysseyBlocking Buffer TBS overnight at 4 °C with gentle agitation. KRas (Sigma Aldrich, SAB1404011-100UG), pcRafS338 (CST, 9427), tAkt1 (CST, 2938), pAktS473 (CST, 4060), tErk (CST, 4696), pErkT202/Y204 (CST, 4370), pS6S235/236 (CST, 4858), and β-actin (CST, 4970/Sigma-Aldrich, A5441) antibodies were used to detect the individual proteins. After primary antibody incubation, membranes were washed three times with TBS-T (50 mM Tris, 150 mM NaCl, 0.05% Tween 20, pH 7.4) for 5 min before being incubated with secondary antibodies (anti-mouse IgG (H+L) (DyLight 680 Conjugate) (CST, 5470) / anti-rabbit IgG (H+L) (DyLight 800 4 X PEG Conjugate) (CST, 5151)) diluted in OdysseyBlocking Buffer TBS for 1 hr at room temperature with gentle agitation. After secondary antibody incubation, the membranes were washed three times for 5 min with TBS-T and then scanned using an OdysseyCLx imaging system (Li-Cor). Quantification of protein levels from western blots was performed using Empiria Studio (Li-Cor) (Figure 3B, C, Figure 3—figure supplements 6–9).

[4] = test system: pErkT202/Y204; test: as above; format: cell-based, human; details: for pErk mean fold change: mean of cell lysates
Procedure: as §1, §2, §3

[5] = test system: pS6S235/236; test: as above; format: cell-based, human; details: for pS6 mean fold change: mean of cell lysates
Procedure: as §1, §2, §3

[6] = test system: pcRafS338; test: as above; format: cell-based, human; details: for pcRaf mean fold change: mean of cell lysates
Procedure: as §1, §2, §3

[7] = test system: tAkt1; test: as above; format: cell-based, human; details: for tAkt mean fold change: mean of cell lysates
Procedure: as §1, §2, §3

[8] = test system: tErk; test: as above; format: cell-based, human; details: for tErk mean fold change: mean of cell lysates
Procedure: as §1, §2, §3

[9] = molecular target: KRas; set-up: method as in Jeganathan et al., 2018; details: reversible affinity; ref Jeganathan et al., 2018; cited from earlier work

With “KRasG13C-edaGppCp: KRasG13C covalently modified with edaGppCp” the SOS-catalysed nucleotide exchange [1] was “no SOS-catalysed nucleotide exchange was observed”, the “downstream signalling (pcRaf, pAkt, pErk, pS6)” value [2] was “activation of the Ras pathway comparable to KRasG13C was observed” and the pAkt fold change ([3]; 50 µg, Cell lysate 1) was 2.11. The pAkt fold change ([3]; 50 µg, Cell lysate 2) was 3.13, the “pAkt mean fold change” value ([3]; 50 µg) was 2.62 and the pAkt fold change ([3]; 100 µg, Cell lysate 1) was 4.88. For the same compound, the pAkt fold change ([3]; 100 µg, Cell lysate 2) was 6.30, the “pAkt mean fold change” value ([3]; 100 µg) was 5.59 and the pAkt fold change ([3]; 200 µg, Cell lysate 1) was 6.55. For the same compound, the pAkt fold change ([3]; 200 µg, Cell lysate 2) was 7.78, the “pAkt mean fold change” value ([3]; 200 µg) was 7.17 and the pAkt fold change ([3]; 300 µg, Cell lysate 1) was 6.53. The pAkt fold change ([3]; 300 µg, Cell lysate 2) was 5.20, the “pAkt mean fold change” value ([3]; 300 µg) was 5.87 and the pErk fold change ([4]; 50 µg, Cell lysate 1) was 4.72. The pErk fold change ([4]; 50 µg, Cell lysate 2) was 5.16, the “pErk mean fold change” value ([4]; 50 µg) was 4.94 and the pErk fold change ([4]; 100 µg, Cell lysate 1) was 7.88. The pErk fold change ([4]; 100 µg, Cell lysate 2) was 4.30, the “pErk mean fold change” value ([4]; 100 µg) was 6.09 and the pErk fold change ([4]; 200 µg, Cell lysate 1) was 7.25. For the same compound, the pErk fold change ([4]; 200 µg, Cell lysate 2) was 5.27, the “pErk mean fold change” value ([4]; 200 µg) was 6.26 and the pErk fold change ([4]; 300 µg, Cell lysate 1) was 7.62. The pErk fold change ([4]; 300 µg, Cell lysate 2) was 5.84, the “pErk mean fold change” value ([4]; 300 µg) was 6.73 and the pS6 fold change ([5]; 50 µg, Cell lysate 1) was 4.20. The pS6 fold change ([5]; 50 µg, Cell lysate 2) was 2.51, the “pS6 mean fold change” value ([5]; 50 µg) was 3.36 and the pS6 fold change ([5]; 100 µg, Cell lysate 1) was 2.82. The pS6 fold change ([5]; 100 µg, Cell lysate 2) was 2.81, the “pS6 mean fold change” value ([5]; 100 µg) was 2.82 and the pS6 fold change ([5]; 200 µg, Cell lysate 1) was 3.15. The pS6 fold change ([5]; 200 µg, Cell lysate 2) was 3.28, the “pS6 mean fold change” value ([5]; 200 µg) was 3.22 and the pS6 fold change ([5]; 300 µg, Cell lysate 1) was 3.41. For the same compound, the pS6 fold change ([5]; 300 µg, Cell lysate 2) was 3.61, the “pS6 mean fold change” value ([5]; 300 µg) was 3.51 and the pcRaf fold change ([6]; 50 µg, Cell lysate 1) was 2.67. The pcRaf fold change ([6]; 50 µg, Cell lysate 2) was 1.69, the “pcRaf mean fold change” value ([6]; 50 µg) was 2.18 and the pcRaf fold change ([6]; 100 µg, Cell lysate 1) was 2.60. For the same compound, the pcRaf fold change ([6]; 100 µg, Cell lysate 2) was 2.10, the “pcRaf mean fold change” value ([6]; 100 µg) was 2.35 and the pcRaf fold change ([6]; 200 µg, Cell lysate 1) was 2.93. For the same compound, the pcRaf fold change ([6]; 200 µg, Cell lysate 2) was 3.37, the “pcRaf mean fold change” value ([6]; 200 µg) was 3.15 and the pcRaf fold change ([6]; 300 µg, Cell lysate 1) was 3.66. The pcRaf fold change ([6]; 300 µg, Cell lysate 2) was 3.19, the “pcRaf mean fold change” value ([6]; 300 µg) was 3.43 and the tAkt fold change ([7]; 50 µg, Cell lysate 1) was 1.35. The tAkt fold change ([7]; 50 µg, Cell lysate 2) was 1.53, the “tAkt mean fold change” value ([7]; 50 µg) was 1.44 and the tAkt fold change ([7]; 100 µg, Cell lysate 1) was 1.30. The tAkt fold change ([7]; 100 µg, Cell lysate 2) was 1.69, the “tAkt mean fold change” value ([7]; 100 µg) was 1.50 and the tAkt fold change ([7]; 200 µg, Cell lysate 1) was 1.09. For the same compound, the tAkt fold change ([7]; 200 µg, Cell lysate 2) was 1.67, the “tAkt mean fold change” value ([7]; 200 µg) was 1.38 and the tAkt fold change ([7]; 300 µg, Cell lysate 1) was 0.94. For the same compound, the tAkt fold change ([7]; 300 µg, Cell lysate 2) was 1.47, the “tAkt mean fold change” value ([7]; 300 µg) was 1.20 and the tErk fold change ([8]; 50 µg, Cell lysate 1) was 1.12. The tErk fold change ([8]; 50 µg, Cell lysate 2) was 1.11, the “tErk mean fold change” value ([8]; 50 µg) was 1.12 and the tErk fold change ([8]; 100 µg, Cell lysate 1) was 1.29. For the same compound, the tErk fold change ([8]; 100 µg, Cell lysate 2) was 1.14, the “tErk mean fold change” value ([8]; 100 µg) was 1.21 and the tErk fold change ([8]; 200 µg, Cell lysate 1) was 1.21. The tErk fold change ([8]; 200 µg, Cell lysate 2) was 1.17, the “tErk mean fold change” value ([8]; 200 µg) was 1.19 and the tErk fold change ([8]; 300 µg, Cell lysate 1) was 1.69. The tErk fold change ([8]; 300 µg, Cell lysate 2) was 1.50 and the “tErk mean fold change” value ([8]; 300 µg) was 1.60.
In the case of `Nc1nc2c(ncn2[C@@H]2O[C@H](COP(=O)(O)OP(=O)(O)OCCNC(=O)CCl)[C@@H](O)[C@H]2O)c(=O)[nH]1` [SML-8-73-1], the Kd [9] is given as roughly 0.14 µM.
